Data taken from PMC6978697 (The Journal of Pharmacology and Experimental Therapeutics, 2020).

Biological target: T1, HA-DOPr (HA-tagged δ opioid receptor) (Homo sapiens, UniProt P41143)
T1 construct: gene OPRD1; full-length wild type, HA-tagged
Assay: [3H]-diprenorphine competition, HEK293 membranes
Format: binding
Conditions: read-out: [^3H]-Diprenorphine / pKi (converted)
Text: [3H]-diprenorphine competition, HEK293 membranes on HA-DOPr (HA-tagged δ opioid receptor)

T1 sequence (P41143 whole entry, looked up): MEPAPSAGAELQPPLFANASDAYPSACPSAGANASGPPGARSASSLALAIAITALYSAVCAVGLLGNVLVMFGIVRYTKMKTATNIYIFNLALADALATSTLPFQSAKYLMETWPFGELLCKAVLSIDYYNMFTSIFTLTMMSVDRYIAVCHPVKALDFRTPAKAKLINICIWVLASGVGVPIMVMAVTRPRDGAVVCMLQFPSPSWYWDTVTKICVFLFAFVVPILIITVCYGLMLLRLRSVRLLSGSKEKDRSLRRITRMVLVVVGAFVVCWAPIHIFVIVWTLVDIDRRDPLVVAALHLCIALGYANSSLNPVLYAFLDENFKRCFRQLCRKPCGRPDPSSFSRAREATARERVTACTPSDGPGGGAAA

CN(C)C(=O)c1ccc(C(=C2CCN(Cc3cncs3)CC2)c2cccc(C(N)=O)c2)cc1 [PN6047, 3-[[4-(dimethylcarbamoyl)phenyl]-[1-(thiazol-5-ylmethyl)-4-piperidylidene]methyl]benzamide]
Ki: 56.2 nM
